Tests used:
Assay in all cases: cells
Ca-Ski = format: functional, cell-based; details: Homo sapiens;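 note: cell viability assay measuring inhibition of Ca-Ski cell growth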
Description: SANGER: Inhibition of human Ca-Ski cell growth in a cell viability assay.

CaR-1 = format: functional, cell-based; details: Homo sapiens;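 note: growth inhibition of human CaR-1 cancer cells, read out with a cell viability assay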
Description: SANGER: Inhibition of human CaR-1 cell growth in a cell viability assay.

DK-MG = format: functional, cell-based; details: Homo sapiens;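 note: growth inhibition of DK-MG cells, read out with a cell viability assay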
Description: SANGER: Inhibition of human DK-MG cell growth in a cell viability assay.

DMS-273 = format: functional, cell-based; details: Homo sapiens
Description: SANGER: Inhibition of human DMS-273 cell growth in a cell viability assay.

EW-24 = format: functional, cell-based, Homo sapiens; details: Homo sapiens, EW-24;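 note: human EW-24 cancer cell line, growth inhibition read out via a cell viability assay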
Description: SANGER: Inhibition of human EW-24 cell growth in a cell viability assay.

HCC1395 = format: functional, cell-based; details: Homo sapiens;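 note: growth inhibition of HCC1395 cells, read out by a cell viability assay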
Description: SANGER: Inhibition of human HCC1395 cell growth in a cell viability assay.

HCC1954 = format: functional, cell-based; details: Homo sapiens;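 note: growth inhibition of human HCC1954 cells, read out with a cell viability assay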
Description: SANGER: Inhibition of human HCC1954 cell growth in a cell viability assay.

HGC-27 = format: functional, cell-based; details: Homo sapiens;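 note: growth inhibition of human HGC-27 cells, read out in a cell viability assay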
Description: SANGER: Inhibition of human HGC-27 cell growth in a cell viability assay.

HT1197 = format: functional, cell-based, HT-1197; details: Homo sapiens
Description: SANGER: Inhibition of human HT-1197 cell growth in a cell viability assay.

HT-1376 = format: functional, cell-based; details: Homo sapiens
Description: SANGER: Inhibition of human HT-1376 cell growth in a cell viability assay.

IGROV-1 = format: functional, cell-based; details: Homo sapiens;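 note: reduction of IGROV-1 cell growth, read out with a viability assay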
Description: SANGER: Inhibition of human IGROV-1 cell growth in a cell viability assay.

KYSE-140 = format: functional, cell-based; details: Homo sapiens;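 note: cell viability assay measuring growth inhibition in human KYSE-140 cells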
Description: SANGER: Inhibition of human KYSE-140 cell growth in a cell viability assay.

LB373-MEL-D = format: functional, cell-based, Homo sapiens; details: Homo sapiens, LB373-MEL-D;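 note: growth inhibition of the cell line, read out in a cell viability assay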
Description: SANGER: Inhibition of human LB373-MEL-D cell growth in a cell viability assay.

MOLT-13 = format: functional, cell-based; details: Homo sapiens;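 note: IC50 for suppression of MOLT-13 cell growth, read out with a cell viability assay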
Description: SANGER: Inhibition of human MOLT-13 cell growth in a cell viability assay.

NB7 = format: functional, cell-based, Homo sapiens; details: Homo sapiens, NB7;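 note: growth inhibition of NB7 cells, read out with a cell viability assay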
Description: SANGER: Inhibition of human NB7 cell growth in a cell viability assay.

NCI-H1703 = format: functional, cell-based; details: Homo sapiens;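 note: growth inhibition of NCI-H1703 cells, read out via a cell viability assay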
Description: SANGER: Inhibition of human NCI-H1703 cell growth in a cell viability assay.

NCI-H2052 = format: functional, cell-based; details: Homo sapiens;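 note: growth inhibition of NCI-H2052 cells, read out with a cell viability assay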
Description: SANGER: Inhibition of human NCI-H2052 cell growth in a cell viability assay.

NCI-H2170 = format: functional, cell-based; details: Homo sapiens;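 note: cell viability assay measuring growth inhibition of human NCI-H2170 cancer cells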
Description: SANGER: Inhibition of human NCI-H2170 cell growth in a cell viability assay.

NCI-H596 = format: functional, cell-based; details: Homo sapiens;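 note: growth inhibition of NCI-H596 cells, read out with a cell viability assay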
Description: SANGER: Inhibition of human NCI-H596 cell growth in a cell viability assay.

NCI-H661 = format: functional, cell-based; details: Homo sapiens;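 note: cell viability assay read-out, IC50 being the concentration that inhibits growth of the cells by half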
Description: SANGER: Inhibition of human NCI-H661 cell growth in a cell viability assay.

PC-3 = format: functional, cell-based; details: Homo sapiens;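 note: cell viability assay measuring growth inhibition of PC-3 cells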
Description: SANGER: Inhibition of human PC-3 cell growth in a cell viability assay.

RVH-421 = format: functional, cell-based; details: Homo sapiens
Description: SANGER: Inhibition of human RVH-421 cell growth in a cell viability assay.

SBC-5 = format: functional, cell-based; details: Homo sapiens;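 note: cell viability assay read-out, IC50 is the concentration that inhibits growth of the cells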
Description: SANGER: Inhibition of human SBC-5 cell growth in a cell viability assay.

SK-HEP1 = format: functional, cell-based, SK-HEP-1; details: Homo sapiens;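 note: cell viability readout used to quantify reduction in proliferation of human SK-HEP-1 cells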
Description: SANGER: Inhibition of human SK-HEP-1 cell growth in a cell viability assay.

SK-MEL3 = format: functional, cell-based, SK-MEL-3; details: Homo sapiens;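 note: growth inhibition of human SK-MEL-3 cells, read out with a cell viability assay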
Description: SANGER: Inhibition of human SK-MEL-3 cell growth in a cell viability assay.

SK-MEL-30 = format: functional, cell-based; details: Homo sapiens;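 note: growth inhibition of SK-MEL-30 cells, determined with a cell viability assay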
Description: SANGER: Inhibition of human SK-MEL-30 cell growth in a cell viability assay.

SK-OV-3 = format: functional, cell-based; details: Homo sapiens;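 note: growth inhibition of SK-OV-3 human cells, read out with a cell viability assay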
Description: SANGER: Inhibition of human SK-OV-3 cell growth in a cell viability assay.

SW1783 = format: functional, cell-based; details: Homo sapiens;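 note: cell growth inhibition measured with a viability assay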
Description: SANGER: Inhibition of human SW1783 cell growth in a cell viability assay.

SW48 = format: functional, cell-based; details: Homo sapiens;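 note: growth inhibition of SW48 cells, read out with a cell viability assay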
Description: SANGER: Inhibition of human SW48 cell growth in a cell viability assay.

SW756 = format: functional, cell-based; details: Homo sapiens;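 note: growth inhibition of human SW756 cells, read out with a cell viability assay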
Description: SANGER: Inhibition of human SW756 cell growth in a cell viability assay.

SW780 = format: functional, cell-based; details: Homo sapiens;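 note: growth inhibition of the cells, read out with a cell viability assay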
Description: SANGER: Inhibition of human SW780 cell growth in a cell viability assay.

SAOS-2 = format: functional, cell-based; details: Homo sapiens;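 note: growth inhibition of human Saos-2 cells determined by a cell viability assay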
Description: SANGER: Inhibition of human Saos-2 cell growth in a cell viability assay.

639-V = format: functional, cell-based; details: Homo sapiens;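 note: growth inhibition of 639-V cells, read out with a cell viability assay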
Description: SANGER: Inhibition of human 639-V cell growth in a cell viability assay.

647-V = format: functional, cell-based; details: Homo sapiens;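 note: growth inhibition of 647-V cells, read out with a cell viability assay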
Description: SANGER: Inhibition of human 647-V cell growth in a cell viability assay.

769-P = format: functional, cell-based; details: Homo sapiens
Description: SANGER: Inhibition of human 769-P cell growth in a cell viability assay.

8505C = format: functional, cell-based; details: Homo sapiens
Description: SANGER: Inhibition of human 8505C cell growth in a cell viability assay.

A 172 = format: functional, cell-based; details: Homo sapiens;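 note: growth inhibition of A172 cells, measured with a cell viability readout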
Description: SANGER: Inhibition of human A172 cell growth in a cell viability assay.

A204 = format: functional, cell-based; details: Homo sapiens;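 note: growth inhibition of human A204 cells, read out with a cell viability assay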
Description: SANGER: Inhibition of human A204 cell growth in a cell viability assay.

A-375 = format: functional, cell-based; details: Homo sapiens;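 note: growth inhibition of A375 cells, read out with a cell viability assay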
Description: SANGER: Inhibition of human A375 cell growth in a cell viability assay.

A-431 = format: functional, cell-based; details: Homo sapiens;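 note: growth inhibition of A-431 cells, determined with a cell viability read-out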
Description: SANGER: Inhibition of human A431 cell growth in a cell viability assay.

AN3-CA = format: functional, cell-based; details: Homo sapiens;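 note: growth inhibition of human AN3-CA cells measured by a cell viability assay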
Description: SANGER: Inhibition of human AN3-CA cell growth in a cell viability assay.

C-33-A = format: functional, cell-based; details: Homo sapiens;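 note: cell viability assay measuring growth inhibition of C-33-A cells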
Description: SANGER: Inhibition of human C-33-A cell growth in a cell viability assay.

CAL-120 = format: functional, cell-based; details: Homo sapiens;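 note: cell growth inhibition, read out as cell viability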
Description: SANGER: Inhibition of human CAL-120 cell growth in a cell viability assay.

CAL-33 = format: functional, cell-based; details: Homo sapiens;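 note: growth inhibition of CAL-33 cells, read out with a cell viability assay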
Description: SANGER: Inhibition of human CAL-33 cell growth in a cell viability assay.

VM-CUB-1 = format: functional, cell-based; details: Homo sapiens;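 note: cell viability assay measuring growth inhibition of the human VM-CUB-1 cell line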
Description: SANGER: Inhibition of human VM-CUB-1 cell growth in a cell viability assay.

Compound `NC(=O)c1ccc(N(C(N)=O)c2c(F)cccc2F)nc1-c1ccc(F)cc1F` [VX-702] has an IC50 (Ca-Ski) greater than 2000 nM, an IC50 (CaR-1) greater than 2000 nM and an IC50 (DK-MG) greater than 2000 nM. The IC50 (DMS-273) was greater than 2000 nM, the IC50 (EW-24) was greater than 2000 nM and the IC50 (HCC1395) was greater than 2000 nM. The IC50 (HCC1954) was greater than 2000 nM, the IC50 (HGC-27) was greater than 2000 nM and the IC50 (HT1197) was greater than 2000 nM. The IC50 (HT-1376) was greater than 2000 nM, the IC50 (IGROV-1) was greater than 2000 nM and the IC50 (KYSE-140) was greater than 2000 nM. For the same compound, the IC50 (LB373-MEL-D) was greater than 2000 nM, the IC50 (MOLT-13) was 160 nM and the IC50 (NB7) was greater than 2000 nM. For the same compound, the IC50 (NCI-H1703) was greater than 2000 nM, the IC50 (NCI-H2052) was greater than 2000 nM and the IC50 (NCI-H2170) was greater than 2000 nM. For the same compound, the IC50 (NCI-H596) was greater than 2000 nM, the IC50 (NCI-H661) was greater than 2000 nM and the IC50 (PC-3) was greater than 2000 nM. The IC50 (RVH-421) was greater than 2000 nM, the IC50 (SBC-5) was greater than 2000 nM and the IC50 (SK-HEP1) was greater than 2000 nM. For the same compound, the IC50 (SK-MEL3) was greater than 2000 nM, the IC50 (SK-MEL-30) was greater than 2000 nM and the IC50 (SK-OV-3) was greater than 2000 nM. For the same compound, the IC50 (SW1783) was greater than 2000 nM, the IC50 (SW48) was greater than 2000 nM and the IC50 (SW756) was greater than 2000 nM. It also gave an IC50 (SW780) greater than 2000 nM, an IC50 (SAOS-2) greater than 2000 nM and an IC50 (639-V) greater than 2000 nM. The IC50 (647-V) was greater than 2000 nM, the IC50 (769-P) was greater than 2000 nM and the IC50 (8505C) was greater than 2000 nM. It also gave an IC50 (A 172) greater than 2000 nM, an IC50 (A204) greater than 2000 nM and an IC50 (A-375) greater than 2000 nM. For the same compound, the IC50 (A-431) was greater than 2000 nM, the IC50 (AN3-CA) was greater than 2000 nM and the IC50 (C-33-A) was greater than 2000 nM. For the same compound, the IC50 (CAL-120) was greater than 2000 nM, the IC50 (CAL-33) was greater than 2000 nM and the IC50 (VM-CUB-1) was greater than 2000 nM.

From ChEMBL document CHEMBL1201861, “Genomics of Drug Sensitity in Cancer screening data, Wellcome Trust Sanger Institute”
